Series [1] addresses wild-type human cardiac sodium channel, hNav1.5 (Homo sapiens, UniProt Q14524). As to the kind of experiment: Late INa screening assay (PatchXpress whole cell patch clamp, late current generated with Tefluthrin or ATX II). It counts as cell-based. The following applies: for inhibition at 10 µM / Late INa % blk: test compound at 10 μM; for inhibition at 10 µM: read-out: Late INa % blk; for effect on late sodium current: late INa assay, compounds tested at 10 μM. As for the experimental part:
The late sodium current (Late INa) and peak sodium current (Peak INa) assays are performed on an automated electrophysiology platform, PatchXpress 7000A (MDS Analytical Technologies, Sunnyvale, Calif.), which uses the whole cell patch clump technique to measure currents through the cell membrane of up to 16 cells at a time. The assay uses an HEK293 (human embryonic kidney) cell line heterologously expressing the wild-type human cardiac sodium channel, hNav1.5, purchased from Millipore (Billerica, Mass.). No beta subunits were coexpressed with the Na channel alpha subunit. […] Experiments are carried out at 24-27° C.
For both the Late INa and Peak INa assays, series resistance compensation is set to 50% and whole-cell compensation is performed automatically. […] Currents through open sodium channels are automatically recorded and stored in the DataXpress2 database (MDS Analytical Technologies, Sunnyvale, Calif.). Analysis is performed using DataXpress2 analysis software and data are compiled in Excel.
Compound stocks are routinely made in glass vials to 10 mM in dimethyl sulfoxide (DMSO). In some cases, when compounds are not soluble in DMSO, they are made in 100% ethanol. Stocks are sonicated as necessary. The extracellular solution for screening Late INa is composed of: 140 mM NaCl, 4 mM KCl, 1.8 mM CaCl2, 0.75 mM MgCl2, and 5 mM HEPES with pH adjusted to 7.4 using NaOH. The extracellular solution for screening Peak INa is composed of: 20 mM NaCl, 120 mM N-methyl-D glucamine, 4 mM KCl, 1.8 mM CaCl2, 0.75 mM MgCl2, and 5 mM HEPES with pH adjusted to 7.4 using HCl. The intracellular solution used to perfuse the inside of the cells for both the Late INa and Peak INa assays contains: 120 mM CsF, […], 5 mM EGTA, 5 mM HEPES and pH adjusted to 7.4 with CsOH. […] The ONa extracellular solution used at the end of each experiment for the Late INa and Peak INa assays to measure baseline current contains: 140 mM N-methyl-D-glucamine; 4 mM KCl; 1.8 mM CaCl2; 0.75 mM MgCl2; 5 mM HEPES and pH was adjusted to 7.4 with HCl.
For the Late INa assay, sodium channels are activated every 10 seconds (0.1 Hz) by depolarizing the cell membrane to −20 mV for 250 milliseconds (ms) from a holding potential of −120 mV.
All compounds are tested to determine their activity in blocking the late sodium current. Late INa current is generated by adding 10 μM Tefluthrin (pyrethroid) to the extracellular solution while recording Na currents. […] For some experiments, 50 nM ATX II (sea anemone toxin), another late INa activator, was used to generate the late component. […] Baseline current in the absence of Na^+ ions is measured at the end of each experiment (after two additions of 0 Na solution—see above) and is used to calculate the percent block by compound.
(In general: Patch clamp records ionic current or voltage across a cell membrane.)

Series [2] has as its system L-type calcium channel. The series can be described thus: L-type calcium channel activity well-plate assay (IMR-32 cells, Ca-4 dye, FlexStation). Format: cell-based, human. The method in brief:
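IMR-32 human neuroblastoma cells seeded overnight at 200,000 cells/well, loaded 1 h at 37° with Ca-4 dye in HBSS/20 mM HEPES pH 7.4 with 2 mM probenecid.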

Series [3] deals with hERG potassium channel (Homo sapiens, UniProt Q12809). The series can be described thus: hERG screening assay (PatchXpress patch clamp, CHO cells). On the technique in general: Block of hERG is tested as a sign of cardiac risk.
hERG potassium channel, sequence (Q12809 whole entry): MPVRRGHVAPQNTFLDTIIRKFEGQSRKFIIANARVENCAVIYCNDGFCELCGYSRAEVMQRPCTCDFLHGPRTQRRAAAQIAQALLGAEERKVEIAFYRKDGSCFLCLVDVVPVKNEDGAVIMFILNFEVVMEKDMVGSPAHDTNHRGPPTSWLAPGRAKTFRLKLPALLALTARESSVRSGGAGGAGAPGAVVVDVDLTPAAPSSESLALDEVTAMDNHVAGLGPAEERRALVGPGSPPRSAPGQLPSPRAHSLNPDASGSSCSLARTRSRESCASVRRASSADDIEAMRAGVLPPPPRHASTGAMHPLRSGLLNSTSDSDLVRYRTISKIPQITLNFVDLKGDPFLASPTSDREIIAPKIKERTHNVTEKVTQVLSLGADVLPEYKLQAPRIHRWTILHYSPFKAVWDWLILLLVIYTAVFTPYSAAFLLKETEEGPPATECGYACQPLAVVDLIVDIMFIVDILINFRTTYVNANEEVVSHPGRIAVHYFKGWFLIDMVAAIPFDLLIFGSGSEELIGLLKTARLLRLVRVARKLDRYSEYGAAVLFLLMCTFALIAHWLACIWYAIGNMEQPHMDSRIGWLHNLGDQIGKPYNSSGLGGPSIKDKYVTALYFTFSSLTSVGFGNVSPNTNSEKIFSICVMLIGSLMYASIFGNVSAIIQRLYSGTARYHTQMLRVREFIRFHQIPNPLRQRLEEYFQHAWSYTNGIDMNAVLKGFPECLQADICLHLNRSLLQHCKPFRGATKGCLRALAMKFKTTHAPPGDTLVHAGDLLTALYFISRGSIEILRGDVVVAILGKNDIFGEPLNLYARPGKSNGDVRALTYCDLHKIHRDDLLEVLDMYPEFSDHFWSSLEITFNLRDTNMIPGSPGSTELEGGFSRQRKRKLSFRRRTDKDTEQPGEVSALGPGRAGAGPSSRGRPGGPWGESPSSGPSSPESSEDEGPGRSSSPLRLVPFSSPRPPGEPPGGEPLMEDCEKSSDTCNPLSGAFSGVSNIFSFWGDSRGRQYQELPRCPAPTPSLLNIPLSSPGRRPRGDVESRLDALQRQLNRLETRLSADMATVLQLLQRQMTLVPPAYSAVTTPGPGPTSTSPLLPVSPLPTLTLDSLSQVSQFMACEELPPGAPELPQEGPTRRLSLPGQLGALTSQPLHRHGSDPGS

wild-type human cardiac sodium channel, hNav1.5, sequence (Q14524 whole entry): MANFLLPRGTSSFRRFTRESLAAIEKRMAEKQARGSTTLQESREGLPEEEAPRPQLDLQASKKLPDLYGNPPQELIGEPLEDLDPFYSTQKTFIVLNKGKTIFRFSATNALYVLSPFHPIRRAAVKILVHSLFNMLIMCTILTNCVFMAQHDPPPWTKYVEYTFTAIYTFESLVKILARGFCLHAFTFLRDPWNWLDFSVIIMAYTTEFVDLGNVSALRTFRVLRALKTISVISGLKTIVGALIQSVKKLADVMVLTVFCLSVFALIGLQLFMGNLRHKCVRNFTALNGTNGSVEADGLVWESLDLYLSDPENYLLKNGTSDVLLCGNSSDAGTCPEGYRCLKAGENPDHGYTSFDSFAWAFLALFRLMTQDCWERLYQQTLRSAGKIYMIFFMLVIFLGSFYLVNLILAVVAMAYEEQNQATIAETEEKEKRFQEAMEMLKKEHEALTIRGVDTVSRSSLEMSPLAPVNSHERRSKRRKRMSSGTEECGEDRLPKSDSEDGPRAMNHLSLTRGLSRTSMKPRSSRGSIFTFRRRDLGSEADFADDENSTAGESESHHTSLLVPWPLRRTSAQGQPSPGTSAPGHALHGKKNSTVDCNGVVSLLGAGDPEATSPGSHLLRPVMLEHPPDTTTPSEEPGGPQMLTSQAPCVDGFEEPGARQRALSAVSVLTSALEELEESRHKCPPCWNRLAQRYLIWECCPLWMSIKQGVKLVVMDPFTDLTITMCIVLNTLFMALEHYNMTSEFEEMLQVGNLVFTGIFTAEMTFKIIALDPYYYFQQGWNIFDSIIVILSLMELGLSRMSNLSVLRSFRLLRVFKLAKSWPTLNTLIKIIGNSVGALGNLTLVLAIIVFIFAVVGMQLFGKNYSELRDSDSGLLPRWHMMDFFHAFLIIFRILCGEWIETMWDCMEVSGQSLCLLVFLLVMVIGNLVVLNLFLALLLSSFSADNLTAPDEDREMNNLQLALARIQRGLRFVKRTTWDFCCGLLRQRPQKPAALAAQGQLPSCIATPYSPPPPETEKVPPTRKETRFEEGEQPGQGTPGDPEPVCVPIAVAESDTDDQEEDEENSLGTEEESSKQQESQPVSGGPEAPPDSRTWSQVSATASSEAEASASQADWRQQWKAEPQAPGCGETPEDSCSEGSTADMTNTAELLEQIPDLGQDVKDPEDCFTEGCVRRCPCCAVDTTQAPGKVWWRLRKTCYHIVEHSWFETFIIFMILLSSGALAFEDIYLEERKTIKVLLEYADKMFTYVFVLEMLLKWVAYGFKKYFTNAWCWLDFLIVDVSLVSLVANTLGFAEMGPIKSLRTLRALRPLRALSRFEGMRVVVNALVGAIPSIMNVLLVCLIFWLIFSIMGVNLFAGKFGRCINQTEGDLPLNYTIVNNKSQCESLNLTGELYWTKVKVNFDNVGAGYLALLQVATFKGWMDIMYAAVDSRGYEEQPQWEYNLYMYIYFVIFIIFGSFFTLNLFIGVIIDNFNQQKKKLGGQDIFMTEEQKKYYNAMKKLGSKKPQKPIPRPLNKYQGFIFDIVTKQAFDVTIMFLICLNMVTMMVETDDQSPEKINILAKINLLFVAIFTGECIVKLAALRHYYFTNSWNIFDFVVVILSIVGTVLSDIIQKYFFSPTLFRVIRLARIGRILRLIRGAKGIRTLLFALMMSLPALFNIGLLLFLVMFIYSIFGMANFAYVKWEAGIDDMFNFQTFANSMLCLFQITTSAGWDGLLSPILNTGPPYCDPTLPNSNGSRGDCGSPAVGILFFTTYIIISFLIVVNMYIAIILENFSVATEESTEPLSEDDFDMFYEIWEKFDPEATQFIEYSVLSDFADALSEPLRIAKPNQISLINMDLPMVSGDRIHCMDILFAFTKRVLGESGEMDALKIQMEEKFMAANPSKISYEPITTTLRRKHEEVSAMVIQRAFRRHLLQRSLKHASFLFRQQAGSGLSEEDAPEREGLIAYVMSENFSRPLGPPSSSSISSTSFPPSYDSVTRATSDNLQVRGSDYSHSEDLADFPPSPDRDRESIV

Turning to `COC(=O)C1=C(C)Nc2nnnn2C1c1ccccc1` (stereo not shown) [PT-514, methyl 5-methyl-7-phenyl-4,7-dihydrotetrazolo[1,5-a]pyrimidine-6-carboxylate], the inhibition at 10 µM in series [1] came to 6%.

Take `CC1=C(C(=O)OCCc2nnn[nH]2)C(c2cccc3ccccc23)n2nnnc2N1` (stereo not shown) [PT-247, 2-(1H-tetrazol-5-yl)ethyl 5-methyl-7-(naphthalen-1-yl)-4,7-dihydrotetrazolo[1,5-a]pyrimidine-6-carboxylate]: the inhibition at 10 µM in series [1] is 0.3%.

“2-methyl-1-phenylpropan-2-yl 5-methyl-7-(naphthalen-1-yl)-4,7-dihydrotetrazolo[1,5-a]pyrimidine-6- [PT-264]”: the “Late INa % blk” value in series [1] came out at 53.5%. For `CC1=C(C(=O)N2CCN(c3ccccc3)CC2)C(c2ccc3ccccc3c2)C2=C(CCCC2=O)N1` (stereo not shown) [PT-165, 2-methyl-4-(naphthalen-2-yl)-3-(4-phenylpiperazine-1-carbonyl)-4,6,7,8-tetrahydroquinolin-5(1H)-one], in series [2], the “CaL Plate Assay % blk (1 μM test cmpd)” value is 0% and the “CaL Plate Assay % blk (10 μM test cmpd)” value is 2%. Besides, in series [3], the “hERG Patch Clamp hERG % blk (1 μM test cmpd)” value was determined as 30.5% and the “hERG Patch Clamp hERG % blk (10 μM test cmpd)” value stood at 64.5%. In addition, the “effect on late sodium current” value in series [1] was “potentiated late sodium current”. In the case of `CC1=C(C(=O)OCc2ccc(C(F)(F)F)cc2)C(c2cccc3ccccc23)n2nnnc2N1` (stereo not shown) [PT-051, 4-(trifluoromethyl)benzyl 5-methyl-7-(naphthalen-1-yl)-4,7-dihydrotetrazolo[1,5-a]pyrimidine-6-carboxylate], the inhibition at 10 µM in series [1] was 16.9%. As to `CCOC(=O)C1=C(C)NC(C)=C(C(=O)OCC)C1c1ccc2c(c1)OCCO2` [PT-109, diethyl 4-(2,3-dihydrobenzo[b][1,4]dioxin-6-yl)-2,6-dimethyl-1,4-dihydropyridine-3,5-dicarboxylate], in series [2], the “CaL Plate Assay % blk (1 μM test cmpd)” value stood at 4% and the “CaL Plate Assay % blk (10 μM test cmpd)” value is listed as 53%. Further, in series [3], the “hERG Patch Clamp hERG % blk (1 μM test cmpd)” value came out at 16% and the “hERG Patch Clamp hERG % blk (10 μM test cmpd)” value came to 38.5%. Besides, in series [1], the inhibition at 10 µM was determined as 76.5%. For the compound `COC(=O)C1=C(C)N(CC(=O)O)c2nnnn2C1c1sc2ccccc2c1Br` (stereo not shown) [PT-533, 2-(7-(3-bromobenzo[b]thiopben-2-yl)-6-(methoxycarbonyl)-5-methyltetrazolo[1,5-a]pyrimidin-4(7H)-yl)acetic acid], in series [1], the “Late INa % blk” value is recorded as 12%.

With `CC1=C(C(=O)OCc2ccccc2Br)C(c2c(Cl)cccc2Cl)n2nnnc2N1` (stereo not shown) [PT-531, 2-bromobenzyl 7-(2,6-dichlorophenyl)-5-methyl-4,7-dihydrotetrazolo[1,5-a]pyrimidine-6-carboxylate], the inhibition at 10 µM in series [1] turned out to be 51.2%.

Regarding `CC1=C(C(=O)Nc2c(C)cccc2C)C(c2ccsc2)C2=C(CCCC2=O)N1` (stereo not shown) [PT-180, N-(2,6-dimethylphenyl)-2-methyl-5-oxo-4-(thiophen-3-yl)-1,4,5,6,7,8-hexahydroquinoline-3-carboxamide], the inhibition at 10 µM in series [1] is -4.7%.

`CC1=C(C(=O)N2CCC(c3ccccc3)CC2)C(c2ccsc2)C2=C(CCCC2=O)N1` (stereo not shown) [PT-163, 2-methyl-3-(4-phenylpiperidine-1-carbonyl)-4-(thiophen-3-yl)-4,6,7,8-tetrahydroquinolin-5(1H)-one]: in series [2], the “CaL Plate Assay % blk (1 μM test cmpd)” value amounted to 5% and the “CaL Plate Assay % blk (10 μM test cmpd)” value was found to be 17%. Further, in series [3], the “hERG Patch Clamp hERG % blk (1 μM test cmpd)” value amounted to 15% and the “hERG Patch Clamp hERG % blk (10 μM test cmpd)” value is 53.5%. For the same compound, in series [1], the “effect on late sodium current” value is recorded as “potentiated late sodium current”.

As for “H-indol-5-yl)phenyl)-5-methyl-4,7-dihydrotetrazolo[1,5-a]pyrimidine-6-carboxylate [PT-505]”, the “Late INa % blk” value in series [1] is 69.6%. Turning to `CC1=C(C(=O)O[C@@H](C)c2ccccc2)C(c2cc3ccccc3o2)n2nnnc2N1` (stereo partly drawn) [PT-059, (S)-1-phenylethyl 7-(benzofuran-2-yl)-5-methyl-4,7-dihydrotetrazolo[1,5-a]pyrimidine-6-carboxylate], in series [3], the “hERG Patch Clamp hERG % blk (1 μM test cmpd)” value amounted to 10% and the “hERG Patch Clamp hERG % blk (10 μM test cmpd)” value is listed as 66.5%. Moreover, the “Late INa % blk” value in series [1] came to 57.7%. For “H-furo[3,4-e]pyrazolo[3,4-b]pyridin-5(4H)-one [PT-079]” the same measures were 57.5%, 96.5% and 49%. Turning to `CC1=C(C(=O)O[C@@H](C)c2ccccc2)C(c2cc3ccccc3s2)n2nnnc2N1` (stereo partly drawn) [PT-056, (S)-1-phenylethyl 7-(benzo[b]thiophen-2-yl)-5-methyl-4,7-dihydrotetrazolo[1,5-a]pyrimidine-6-carboxylate], the “Late INa % blk” value in series [1] was 7.8%. Turning to `CC1=C(C(=O)N2CCN(c3ccccc3)CC2)C(c2ccsc2)C2=C(CCCC2=O)N1` (stereo not shown) [PT-166, 2-methyl-3-(4-phenylpiperazine-1-carbonyl)-4-(thiophen-3-yl)-4,6,7,8-tetrahydroquinolin-5(1H)-one], the “effect on late sodium current” value in series [1] is reported as “potentiated late sodium current”. Consider `CC1=C(C(=O)O[C@@H](C)c2ccccc2)C(c2cc3ccccc3s2)n2nnnc2N1` (stereo partly drawn) [PT-057, (S)-1-phenylethyl 7-(benzo[b]thiophen-2-yl)-5-methyl-4,7-dihydrotetrazolo[1,5-a]pyrimidine-6-carboxylate], for which the inhibition at 10 µM in series [1] was determined as 71%.

With `CC1=C(C(=O)OCc2ccccc2)C(c2ccccc2-c2ccc(NS(C)(=O)=O)cc2)n2nnnc2N1` (stereo not shown) [PT-530, benzyl 5-methyl-7-(4′-(methylsulfonamido)biphenyl-2-yl)-4,7-dihydrotetrazolo[1,5-a]pyrimidine-6-carboxylate], in series [3], the “hERG Patch Clamp hERG % blk (1 μM test cmpd)” value is given as 13% and the “hERG Patch Clamp hERG % blk (10 μM test cmpd)” value is recorded as 48%. Further, in series [1], the inhibition at 10 µM is 88.3%.

Consider `CC1=C(C(=O)OCc2ccccc2Br)C(c2c(Cl)cccc2Cl)n2nnnc2N1Cc1nnn[nH]1` (stereo not shown) [PT-532, 2-bromobenzyl 4-((1H-tetrazol-5-yl)methyl)-7-(2,6-dichlorophenyl)-5-methyl-4,7-dihydrotetrazolo[1,5-a]pyrimidine-6-carboxylate], for which, in series [1], the inhibition at 10 µM was 35.6%.

In the case of `CC1=C(C(=O)OC(C)C)C(c2c[nH]nc2-c2ccc(F)cc2)C(C(=O)OC(C)C)=C(C)N1` [PT-128, diisopropyl 4-(3-(4-fluorophenyl)-1H-pyrazol-4-yl)-2,6-dimethyl-1,4-dihydropyridine-3,5-dicarboxylate], in series [1], the inhibition at 10 µM is 34.1%.

Turning to `CC1=C(C(=O)N2CCC(c3ccc(C(N)=O)cc3)CC2)C(c2cccc3ccccc23)C2=C(CCCC2=O)N1` (stereo not shown) [PT-287, 4-(1-(2-methyl-4-(naphthalen-1-yl)-5-oxo-1,4,5,6,7,8-hexahydroquinoline-3-carbonyl)piperidin-4-yl)benzamide], in series [1], the inhibition at 10 µM amounted to 8.6%. Same read-out and setting: then `COC(=O)c1ccc(C2CCN(C(=O)C3=C(C)NC4=C(C(=O)CCC4)C3c3cccc4ccccc34)CC2)cc1` (stereo not shown) [PT-535, methyl 4-(1-(2-methyl-4-(naphthalen-1-yl)-5-oxo-1,4,5,6,7,8-hexahydroquinoline-3-carbonyl)piperidin-4-yl)benzoate], with 4.2%. Consider `COC(=O)C1=C(C)N(Cc2nnn[nH]2)c2nnnn2C1c1sc2ccccc2c1Br` (stereo not shown) [PT-534, methyl 4-((1H-tetrazol-5-yl)methyl)-7-(3-bromobenzo[b]thiophen-2-yl)-5-methyl-4,7-dihydrotetrazolo[1,5-a]pyrimidine-6-carboxylate], for which the inhibition at 10 µM in series [1] is 18.2%.

Values taken from patent publication US20090181986A1, “SUBSTITUTED HETEROCYCLIC COMPOUNDS” (priority 2007, published 2009).
